Common to all, as to format: functional
For experiment [1], the system named is PC-3. The experiment in a line: Cytotoxicity against human PC3 cells assessed as cell growth at 10^-5 M after 48 hrs by SRB assay. As to conditions: PC-3, 48 h, read-out: Activity. (The SRB assay estimates cell density from bound dye.)
Experiment [2] can be described thus: Cytotoxicity against human UACC257 cells assessed as cell growth at 10^-5 M after 48 hrs by SRB assay. As to conditions: UACC-257, 48 h, read-out: Activity.
Experiment [3] has as its system SF-539. Briefly: Cytotoxicity against human SF539 cells assessed as cell growth at 10^-5 M after 48 hrs by SRB assay. As to conditions: SF-539, 48 h, read-out: Activity.
Experiment [4] can be described thus: Cytotoxicity against human NCI-ADR-RES cells assessed as cell growth at 10^-5 M after 48 hrs by SRB assay. As to conditions: read-out: Activity.
Experiment [5] deals with SNB-75. The experiment in a line: Cytotoxicity against human SNB75 cells assessed as cell growth at 10^-5 M after 48 hrs by SRB assay. As to conditions: SNB-75, 48 h, read-out: Activity.
Experiment [6] deals with A498. The experiment in a line: Cytotoxicity against human A498 cells assessed as cell growth at 10^-5 M after 48 hrs by SRB assay. As to conditions: A498, 48 h, read-out: Activity.
For experiment [7], the system named is T47D. Briefly: Cytotoxicity against human T47D cells assessed as cell growth at 10^-5 M after 48 hrs by SRB assay. The conditions noted are these: read-out: Activity.
The nature of experiment [8]: Cytotoxicity against human Hs578T cells assessed as cell growth at 10^-5 M after 48 hrs by SRB assay. As to conditions: Hs-578T, read-out: Activity.
The test system of experiment [9] is SF-295. Briefly: Cytotoxicity against human SF295 cells assessed as cell growth at 10^-5 M after 48 hrs by SRB assay. The conditions noted are these: SF-295, 48 h, read-out: Activity.
Experiment [10] has as its system MCF7. Briefly: Cytotoxicity against human MCF7 cells assessed as cell growth at 10^-5 M after 48 hrs by SRB assay. As to conditions: MCF7, 48 h, read-out: Activity.
The test system of experiment [11] is COLO 205. Briefly: Cytotoxicity against human COLO205 cells assessed as cell growth at 10^-5 M after 48 hrs by SRB assay. As to conditions: COLO 205, 48 h, read-out: Activity.
Experiment [12] deals with MDA-MB-435. The experiment in a line: Cytotoxicity against human MDA-MB-435 cells assessed as cell growth at 10^-5 M after 48 hrs by SRB assay. The conditions noted are these: MDA-MB-435, 48 h, read-out: Activity.
Experiment [13] has as its system SN12C. Briefly: Cytotoxicity against human SN12C cells assessed as cell growth at 10^-5 M after 48 hrs by SRB assay. The conditions noted are these: read-out: Activity.
Experiment [14] has as its system HOP-92. Briefly: Cytotoxicity against human HOP92 cells assessed as cell growth at 10^-5 M after 48 hrs by SRB assay. As to conditions: HOP-92, 48 h, read-out: Activity.
The subject of experiment [15] is SF-268. The experiment in a line: Cytotoxicity against human SF268 cells assessed as cell growth at 10^-5 M after 48 hrs by SRB assay. As to conditions: SF-268, 48 h, read-out: Activity.
A short description of experiment [16]: Cytotoxicity against human OVCAR4 cells assessed as cell growth at 10^-5 M after 48 hrs by SRB assay. The conditions noted are these: OVCAR-4, 48 h, read-out: Activity.
For experiment [17], the system named is HCT-116. The experiment in a line: Cytotoxicity against human HCT116 cells assessed as cell growth at 10^-5 M after 48 hrs by SRB assay. The conditions noted are these: HCT-116, 48 h, read-out: Activity.
The test system of experiment [18] is OVCAR-3. The experiment in a line: Cytotoxicity against human OVCAR3 cells assessed as cell growth at 10^-5 M after 48 hrs by SRB assay. As to conditions: OVCAR-3, 48 h, read-out: Activity.
The subject of experiment [19] is LOX IMVI. The experiment in a line: Cytotoxicity against human LOXIMVI cells assessed as cell growth at 10^-5 M after 48 hrs by SRB assay. As to conditions: read-out: Activity.
Experiment [20] concerns MDA-MB-231. Briefly: Cytotoxicity against human MDA-MB-231 cells assessed as cell growth at 10^-5 M after 48 hrs by SRB assay. The conditions noted are these: MDA-MB-231, 48 h, read-out: Activity.
The test system of experiment [21] is RXF 393. The experiment in a line: Cytotoxicity against human RXF393 cells assessed as cell growth at 10^-5 M after 48 hrs by SRB assay. As to conditions: RXF 393, 48 h, read-out: Activity.
In experiment [22] the test system is KM12. Briefly: Cytotoxicity against human KM12 cells assessed as cell growth at 10^-5 M after 48 hrs by SRB assay. As to conditions: KM12, 48 h, read-out: Activity.

The text below walks through data of ChEMBL document CHEMBL3112450, “Synthesis and in vitro antitumor evaluation of primary amine substituted quinazoline linked benzimidazole” (Bioorg Med Chem Lett, 2014).

On to `C=CCn1c(C)nc2ccc(Nc3nc(Nc4ncccn4)nc4ccccc34)cc21`, for which the growth at 10 µM was 89.2% in experiment [1]; 101% in experiment [2]; 103% in [3]; 103% in [4]; 78.8% in experiment [5]; 76.8% in experiment [6]. For the same compound, the growth at 10 µM in [7] was found to be 55.8%; in experiment [8], 87.7%; in [9] it was 86.9%; in [10] it was 82.4%; in experiment [11] it was 102%; in [12], 107%. The growth at 10 µM was found to be 97.6% in experiment [13]; 70.5% in [14]; 94.8% in experiment [15]; 85.6% in experiment [16]; 94.2% in experiment [17]; 99.3% in [18]. Moreover, the growth at 10 µM in experiment [19] is 85.3%; in [20], 84.4%; in experiment [21], 114%; in [22] it was 106%.
For `C=CCn1c(C)nc2ccc(Nc3nc(NCCO)nc4ccccc34)cc21`, the growth at 10 µM in experiment [1] stood at 93.8%; in [2], 100%; in experiment [3], 104%; in [4], 106%; in experiment [5], 92.5%; in experiment [6], 78.3%. Also, the growth at 10 µM in [7] amounted to 95.8%; in [8], 91.5%; in [9] it was 146%; in experiment [10] it was 93.7%; in experiment [11] it was 106%; in experiment [12], 102%. The growth at 10 µM came to 87.6% in [13]; 73.9% in [14]; 92.5% in [15]; 88.4% in experiment [16]; 94.7% in experiment [17]; 98.3% in experiment [18]. In addition, the growth at 10 µM was 88.5% in experiment [19], 84.5% in experiment [20], 116% in experiment [21] and 102% in experiment [22].
Consider `C=CCn1c(C)nc2cc(Nc3nc(NCCO)nc4ccccc34)ccc21`, for which the growth at 10 µM in experiment [1] was 69.2%; in [2] it was 97.7%; in experiment [3] it was 94.8%; in [4], 97.7%; in experiment [5], 76.4%; in [6], 55.4%. The growth at 10 µM in experiment [7] was found to be 69%; in experiment [8] it was 77.5%; in [9] it was 90.6%; in experiment [10], 72.2%; in [11], 41.9%; in experiment [12], 92.1%. For the same compound, the growth at 10 µM in experiment [13] was 84.7%; in experiment [14] it was 57.9%; in [15], 90.9%; in experiment [16], 65.2%; in experiment [17], 64%; in experiment [18], 94.8%. The growth at 10 µM stood at 85.6% in experiment [19], 72.9% in [20], 97.5% in experiment [21] and 73.1% in experiment [22].
Turning to `C=CCn1c(C)nc2cc(Nc3nc(Nc4ccc5nc(C)n(CC=C)c5c4)nc4ccccc34)ccc21`, the growth at 10 µM in experiment [1] worked out at 95.8%; in experiment [2], 102%; in experiment [3], 98.6%; in experiment [4], 101%; in experiment [5] it was 90.8%; in experiment [6] it was 125%. Besides, the growth at 10 µM in [7] came out at 96%; in experiment [8], 100%; in experiment [10] it was 92.4%; in [11] it was 108%; in [12] it was 108%; in experiment [13], 96.5%. Besides, the growth at 10 µM was found to be 79.8% in [14]; 113% in [15]; 99.5% in experiment [16]; 98.9% in experiment [17]; 108% in experiment [18]; 93.3% in experiment [19]. In addition, the figures for the growth at 10 µM in [20], in experiment [21] and in [22] were 90%, 124% and 109%, respectively.
With `C=CCn1c(C)nc2ccc(Nc3nc(Sc4ccc(N)cc4)nc4ccccc34)cc21`, the growth at 10 µM in [1] amounted to 81.1%; in experiment [2], 110%; in experiment [3], 108%; in [4], 97.8%; in experiment [5] it was 98.2%; in experiment [6], 48.5%. Also, the growth at 10 µM in experiment [7] is 71.7%; in experiment [8], 98.1%; in [9], 77.1%; in experiment [10] it was 93.2%; in experiment [11], 121%; in experiment [12] it was 96.9%. For the same compound, the growth at 10 µM in [13] turned out to be 93.9%; in experiment [14], 61.1%; in experiment [15], 109%; in [16] it was 88.5%; in [17], 93.2%; in experiment [18] it was 106%. The growth at 10 µM was 97% in experiment [19], 80.5% in [20], 144% in experiment [21] and 96.8% in [22].
